In US9834541B2, “2-aminopyridine compounds” (Merck Patent GmbH, priority 2012, dated 2017) one finds IC50 and microsomal CLint data, which are given here for 21 molecules.

SMILES strings stand for the structures.

Data set [1] relates to Wnt pathway. Kind of data set: Cellular assay for Wnt pathway activity, LS174T-shl-fLuc clone 5 (LS174T-L5) luciferase reporter assay. In kind it is cell-based. As to conditions: Homo sapiens; LS174T TCF luciferase reporter cells, 24 hours incubation. An excerpt:
1. Cellular Assay for Wnt Pathway Activity LS174T-shl-fLuc Clone 5 (LS174T-L5) Reporter Assay Principle:
This assay is based on an in-vitro luciferase activity readout. The human colon cancer cell line, LS174T was transduced with a lentivirus encoding a short half-life luciferase (with a destabilised PEST sequence construct; construct F1756): 16×TCF/LEF transcription sites—short half life firefly luciferase on a basal pTA promoter—puromycin resistance gene on an EF-1-α promoter). This construct was made using the lentiviral base vector: pCDF1-MCS2-EF1-Puro from System Biosciences (cat. # CD110B-1). The luciferase has a T1/2 of about 60 minutes.
Stable luciferase-expressing clones were selected, using 1 μg/mL puromycin selection and the clones were bulked up.
Compounds that inhibit the Wnt pathway are predicted to inhibit the induction of luciferase transcription by TCF; this will result in reduced luciferase protein production and luciferase signal readout.
Compounds were tested for their Wnt pathway inhibitory activities using the described firefly luciferase reporter cell based assay. An LS174T luciferase reporter cell line was used which contained a T-Cell Factor (TCF) dependent gene promoter firefly luciferase construct.
Compounds, in concentrations from 30 μM to 1 nM, were incubated for 24 hours on the cells. Luciferase activities were determined using the Steady Glo Luciferase Assay System (Promega) and the TOPCOUNT microplate reader (Perkin Elmer). For analysis, the obtained data were normalized against the untreated vehicle control and fitted for determination of the IC50 values using the Excel Fit application of the Excel Software (Microsoft).
(In general: A reporter such as luciferase makes a cellular process visible.)

Data set [2] in a line: CLint (intrinsic clearance) assay, liver microsomal incubation. Format: in vitro ADME, human. As to conditions: liver microsomes, pH 7.4; human hepatic microsomes, 0.5 mg/mL protein, class symbols. Here is the method:
Also shown is the human hepatic microsomal intrinsic clearance (CLint), whereby the following classification is used:
2. CLint (Intrinsic Clearance) Assay
A Tecan Genesis workstation (RWS ASY 150/8) was used to perform the microsomal incubations. Analysis was carried out using a Waters ACQUITY UPLC system coupled to an ABSciex API3000 mass spectrometer. Data analysis was performed using Assay Explorer (Symyx).
Column: Acquity UPLC BEH C18, 2.1×50 mm, 1.7 um (Waters)
Mobile phases: • A=0.1% formic acid in water • B=acetonitrile
Column temperature: 50° C.
0.1 M potassium phosphate buffer pH 7.4 containing 1 mM MgCl2
15 mM NADPH in phosphate buffer
5.0 mg protein/mL liver microsomes in phosphate buffer
Each experiment consists of 12 test and 2 reference compounds. The reference compounds are incubated as a cocktail.
Dilution of test compounds was done in 2 steps from a 10 mM DMSO stock solution. First 4 μL stock solution was added to 196 μL of 20% DMSO in potassium phosphate buffer pH 7.4. In a second step 10 μL of the first dilution were added to 1890 μL potassium phosphate buffer and 100 μL internal standard solution to a final concentration of […].
100 μL of the final compound dilution were aliquoted into a 96 deep well plate. 12.5 μL liver microsomes were added to each well (0.5 mg/mL final protein concentration) and the samples preincubated for 5 min at 37° C. and 800 rpm agitation.
After the preincubation, 250 μL cold acetonitrile were added to the 0 min samples to prevent a reaction. Following this, 12.5 μL NADPH solution were added to all wells to start the incubation, with the exception of the 0 min and 30 min controls without cofactor, where the NADPH was substituted for phosphate buffer.
The incubations were stopped after 5, 10, 20 and 30 min by adding 250 μL cold acetonitrile to the individual wells.
The quenched samples were then centrifuged at 4000 g for 1 h at 4° C. 100 μL of the supernatant were transferred into 96 well plates for analysis.
The metabolic stability of each compound was determined by measurement of the change in LC-MS/MS peak area over time. Assay Explorer software was used to automatically calculate the slope k of the decline. The intrinsic clearance (CLint) of each compound was then calculated according to the formula: CLint(μL/min/mg protein)=k1000/protein concentration.
A general note: Microsomes from liver hold many membrane-bound enzymes, among them those of drug oxidation.

For the molecule `Cn1ncc2cc(-c3cnc(N)c(Cl)c3N3CCC4(CCNC4=O)CC3)ccc21` [Compound 25, 8-(2-Amino-3-chloro-5-(1-methyl-1H-indazol-5-yl)pyridin-4-yl)-2,8-diazaspiro[4.5]decan-1-one], in data set [1], the IC50 – broadly, the concentration at which inhibition is half-maximal – is 34 nM. Besides, the microsomal CLint (as a rule, the capacity of the preparation to metabolise the compound, expressed as a volume cleared per time) at 0.8 μM in data set [2] lay in the range of 50 to 100 µL/min/mg.

Turning to `CC(C)n1cc(-c2ccc(-c3cnc(N)c(C(F)(F)F)c3N3CCC4(CC3)CNC(=O)O4)cc2)cn1` [Compound 54, 8-{2-Amino-5-[4-(1-isopropyl-1H-pyrazol-4-yl)-phenyl]-3-trifluoro-methyl-pyridin-4-yl}-1-oxa-3,8-diaza-spiro[4.5] decan-2-one], in data set [1], inhibition was half-maximal at 88 nM (IC50). For the same molecule, the microsomal CLint at 0.8 μM in data set [2] was 10 to 50 µL/min/mg.

In data set [1], `CN1C(=O)Cc2ccc(-c3cnc(N)c(C(F)(F)F)c3N3CCC4(CCNC4=O)CC3)cc21` [Compound 50, 8-[2-Amino-5-(1-methyl-2-oxo-2,3-dihydro-1H-indol-6-yl)-3-trifluoromethyl-pyridin-4-yl]-2,8-diaza-spiro[4.5] decan-1-one] had an IC50 of 817 nM. For the same molecule, the microsomal CLint at 0.8 μM in data set [2] was in the range of 10 to 50 µL/min/mg.

On to `Cn1ccc(-c2ccc(-c3cnc(N)c(Cl)c3N3CCC4(CCNC4=O)CC3)cc2)n1` [Compound 22, 8-(2-Amino-3-chloro-5-(4-(1-methyl-1H-pyrazol-3-yl)phenyl)pyridin-4-yl)-2,8-diazaspiro[4.5]decan-1-one], for which, in data set [1], the IC50 is 38 nM. Also, in data set [2], the intrinsic clearance (microsomal CLint) at 0.8 μM is 10 to 50 µL/min/mg.

In the case of `Nc1ncc(-c2ccc3c(c2)CC(=O)N3)c(N2CCC3(CCNC3=O)CC2)c1Cl` [Compound 33, 8-[2-Amino-3-chloro-5-(2-oxo-2,3-dihydro-1H-indol-5-yl)-pyridin-4-yl]-2,8-diaza-spiro[4.5] decan-1-one], the midpoint of inhibition in data set [1], the IC50, lay at 154 nM. Further, in data set [2], the microsomal CLint at 0.8 μM lay in the range of 10 to 50 µL/min/mg.

As for `CCn1ncc2cc(-c3cnc(N)c(Cl)c3N3CCC4(CCNC4=O)CC3)ccc21` [Compound 72, 8-[2-Amino-3-chloro-5-(1-ethyl-1H-indazol-5-yl)-pyridin-4-yl]-2,8-diaza-spiro[4.5] decan-1-one], the IC50 in data set [1] turned out to be 155 nM. Moreover, in data set [2], the microsomal CLint at 0.8 μM is 100 to 150 µL/min/mg.

In the case of `Cn1ncc2cc(-c3cnc(N)c(C(F)(F)F)c3N3CCC4(CC3)CC(=O)NC4=O)ccc21` [Compound 49, 8-[2-Amino-5-(1-methyl-1H-indazol-5-yl)-3-trifluoromethyl-pyridin-4-yl]-2,8-diaza-spiro[4.5] decane-1,3-dione], the midpoint of inhibition in data set [1], the IC50, lay at 4 nM. Besides, in data set [2], the microsomal CLint at 0.8 μM is 10 to 50 µL/min/mg.

For `Cn1cc(-c2ccc(-c3cnc(N)c(Cl)c3N3CCC4(CC3)NC(=O)NC4=O)cc2)cn1` [Compound 2, 8-{2-Amino-3-chloro-5-[4-(1-methyl-1H-pyrazol-4-yl)-phenyl]-pyridin-4-yl}-1,3,8-triaza-spiro[4.5] decane-2,4-dione], it took 31 nM to reach half-maximal inhibition in data set [1] (IC50). For the same molecule, in data set [2], the microsomal CLint at 0.8 μM is less than 10 µL/min/mg.

The molecule `Cn1ncc2cc(-c3cnc(N)c(C(F)(F)F)c3N3CCC(C(N)=O)CC3)ccc21` [Compound 47, 2′-Amino-5′-(1-methyl-1H-indazol-5-yl)-3′-trifluoromethyl-3,4,5,6-tetrahydro-2H-[1,4′] bipyridinyl-4-carboxylic acid amide] showed an IC50 in data set [1] of 110 nM. Moreover, the microsomal CLint at 0.8 μM in data set [2] was 50 to 100 µL/min/mg.

Molecule `CCn1ncc2ccc(-c3cnc(N)c(Cl)c3N3CCC4(CCNC4=O)CC3)cc21` [Compound 71, 8-[2-Amino-3-chloro-5-(1-ethyl-1H-indazol-6-yl)-pyridin-4-yl]-2,8-diaza-spiro[4.5] decan-1-one] had an IC50 in data set [1] of 181 nM. The microsomal CLint at 0.8 μM in data set [2] lay in the range of 10 to 50 µL/min/mg.

Take `Cn1ncc2ccc(-c3cnc(N)c(Cl)c3N3CCC4(CC3)CNC(=O)O4)cc21` [Compound 20, 8-[2-Amino-3-chloro-5-(1-methyl-1H-indazol-6-yl)-pyridin-4-yl]-1-oxa-3,8-diaza-spiro[4.5] decan-2-one]: the IC50 in data set [1] came out at 54 nM. In addition, in data set [2], the microsomal CLint at 0.8 μM was in the range of 10 to 50 µL/min/mg.

In data set [1], `Cn1ncc2cc(-c3cnc(N)c(C(F)(F)F)c3N3CCC4(CCNC4=O)CC3)ccc21` [Compound 39, 8-(2-Amino-5-(1-methyl-1H-indazol-5-yl)-3-(trifluoromethyl)pyridin-4-yl)-2,8-diazaspiro[4.5]decan-1-one] returned an IC50 of 35 nM. Besides, in data set [2], the microsomal CLint at 0.8 μM was in the range of 50 to 100 µL/min/mg.

`Cn1cc(-c2ccc(-c3cnc(N)c(C(F)(F)F)c3N3CCC4(CCNC4=O)CC3)cc2)cn1` [Compound 43, 8-{2-Amino-5-[4-(1-methyl-1H-pyrazol-4-yl)-phenyl]-3-trifluoromethyl-pyridin-4-yl}-2,8-diaza-spiro[4.5] decan-1-one] came in with an IC50 in data set [1] of 46 nM. The microsomal CLint at 0.8 μM in data set [2] lay within 10 to 50 µL/min/mg.

On to `CCn1cc(-c2ccc(-c3cnc(N)c(Cl)c3N3CCC4(CCNC4=O)CC3)cc2)cn1` [Compound 70, 8-{2-Amino-3-chloro-5-[4-(1-ethyl-1H-pyrazol-4-yl)-phenyl]-pyridin-4-yl}-2,8-diaza-spiro[4.5] decan-1-one], for which, in data set [1], the half-inhibitory concentration (IC50) is 23 nM. In data set [2], the microsomal CLint at 0.8 μM is not below 150 µL/min/mg.

`Nc1ncc(-c2ccc3oc(=O)[nH]c3c2)c(N2CCC3(CCNC3=O)CC2)c1Cl` [Compound 32, 5-[6-Amino-5-chloro-4-(1-oxo-2,8-diaza-spiro[4.5]dec-8-yl)-pyridin-3-yl]-3H-benzooxazol-2-one] displayed an IC50 in data set [1] of 17 nM. The microsomal CLint at 0.8 μM in data set [2] was in the range of 10 to 50 µL/min/mg.

In data set [1], `Cn1cc(-c2ccc(-c3cnc(N)c(C(F)(F)F)c3N3CCC4(CC3)CC(=O)NC4=O)cc2)cn1` [Compound 52, 8-{2-Amino-5-[4-(1-methyl-1H-pyrazol-4-yl)-phenyl]-3-trifluoromethyl-pyridin-4-yl}-2,8-diaza-spiro[4.5] decane-1,3-dione] displayed an IC50 of 1.2 nM. Moreover, the microsomal CLint at 0.8 μM in data set [2] lay within 10 to 50 µL/min/mg.

As for `Nc1ncc(-c2ccc3c(c2)CCC(=O)N3)c(N2CCC3(CCNC3=O)CC2)c1Cl` [Compound 19, 6-[6-Amino-5-chloro-4-(1-oxo-2,8-diaza-spiro[4.5]dec-8-yl)-pyridin-3-yl]-3,4-dihydro-1H-quinolin-2-one], in data set [1], the IC50 came out at 75 nM. Further, in data set [2], the microsomal CLint at 0.8 μM is 10 to 50 µL/min/mg.

Take `Cn1ncc2cc(-c3cnc(N)c(Cl)c3N3CCC4(CC3)CC(=O)NC4=O)ccc21` [Compound 17, 8-[2-Amino-3-chloro-5-(1-methyl-1H-indazol-5-yl)-pyridin-4-yl]-2,8-diaza-spiro[4.5] decane-1,3-dione]: in data set [1], the IC50 turned out to be 2 nM. Also, in data set [2], the microsomal CLint at 0.8 μM is 10 to 50 µL/min/mg.

Consider `Cn1cc(-c2ccc(-c3cnc(N)c(F)c3N3CCC4(CC3)CNC(=O)O4)cc2)cn1` [Compound 63, 8-{2-Amino-3-fluoro-5-[4-(1-methyl-1H-pyrazol-4-yl)-phenyl]-pyridin-4-yl}-1-oxa-3,8-diaza-spiro[4.5] decan-2-one], for which, in data set [1], the IC50 stood at 237 nM. In addition, the microsomal CLint at 0.8 μM in data set [2] lay within 10 to 50 µL/min/mg.

`Cn1cc(-c2ccc(-c3cnc(N)c(Cl)c3N3CCC4(CC3)NCCNC4=O)cc2)cn1` [Compound 40, 9-(2-Amino-3-chloro-5-(4-(1-methyl-1H-pyrazol-4-yl)phenyl)pyridin-4-yl)-1,4,9-triazaspiro[5.5]undecan-5-one]: 100 nM corresponded to half-maximal inhibition in data set [1] (IC50). Further, the microsomal CLint at 0.8 μM in data set [2] was 10 to 50 µL/min/mg.

Molecule `Nc1ncc(-c2ccc3c(c2)NC(=O)C3)c(N2CCC3(CCNC3=O)CC2)c1Cl` [Compound 7, 6-(6-Amino-5-chloro-4-(1-oxo-2,8-diazaspiro[4.5]decan-8-yl)pyridin-3-yl)indolin-2-one] registered an IC50 in data set [1] of 63 nM. Moreover, in data set [2], the microsomal CLint at 0.8 μM was 10 to 50 µL/min/mg.
